One may read the AC50 as the midpoint of the concentration-response curve, whichever way the signal moves.

Results on three compounds are retold here after ChEMBL document CHEMBL1201862, “PubChem BioAssay data set” (2004).

SMILES strings stand for the structures. Calls of active or inactive are those of the source. Bounds are passed on as bounds.

Test [1] concerns the target Lysine-specific demethylase 4A (Homo sapiens, UniProt O75164). The test can be described thus: inhibition of JMJD2A H3K9me3 demethylation – biochemical, DELFIA europium, cherry-picked samples, selectivity assay for GASC-1 inhibitor project, dose response (AID 488840).
Test [2] has as its target T1, Tyrosine-protein phosphatase non-receptor type 22 (Homo sapiens, UniProt Q9Y2R2).
T1 sequence (Q9Y2R2 whole entry): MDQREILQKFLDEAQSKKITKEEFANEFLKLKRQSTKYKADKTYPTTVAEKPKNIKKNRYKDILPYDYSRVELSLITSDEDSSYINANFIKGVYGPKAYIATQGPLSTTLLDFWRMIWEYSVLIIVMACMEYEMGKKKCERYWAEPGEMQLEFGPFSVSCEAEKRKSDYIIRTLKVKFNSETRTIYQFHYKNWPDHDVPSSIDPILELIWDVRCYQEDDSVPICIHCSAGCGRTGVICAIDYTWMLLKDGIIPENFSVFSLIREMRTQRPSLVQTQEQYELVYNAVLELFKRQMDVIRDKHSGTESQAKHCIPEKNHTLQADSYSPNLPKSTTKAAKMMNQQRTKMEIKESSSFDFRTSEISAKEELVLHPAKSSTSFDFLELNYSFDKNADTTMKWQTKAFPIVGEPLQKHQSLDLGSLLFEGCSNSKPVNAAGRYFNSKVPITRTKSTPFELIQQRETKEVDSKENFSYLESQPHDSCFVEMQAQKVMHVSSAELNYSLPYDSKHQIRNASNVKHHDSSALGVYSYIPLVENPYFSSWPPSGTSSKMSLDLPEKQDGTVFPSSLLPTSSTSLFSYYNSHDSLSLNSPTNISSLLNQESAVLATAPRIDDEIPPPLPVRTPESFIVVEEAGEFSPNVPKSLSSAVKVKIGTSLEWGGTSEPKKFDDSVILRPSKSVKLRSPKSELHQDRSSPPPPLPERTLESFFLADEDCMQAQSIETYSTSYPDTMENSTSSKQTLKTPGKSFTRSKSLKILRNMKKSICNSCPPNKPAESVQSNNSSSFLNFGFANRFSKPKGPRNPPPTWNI
Put plainly: LYP1 Fluorescent Assay using OMFP substrate for In Vitro dose response studies. [Related pubchem assays (depositor defined):AID1779, AID1784, AID435024].

In test [3] the target is T2, Dual specificity protein phosphatase 3 (Homo sapiens, UniProt P51452). The test can be described thus: VHR1 phosphatase inhibitors, primary screen, biochemical, absorbance, uHTS (AID 1654).
The target of test [4] is T3, Tyrosine-protein phosphatase non-receptor type 7 (Homo sapiens, UniProt P35236).
T3 sequence (P35236 whole entry): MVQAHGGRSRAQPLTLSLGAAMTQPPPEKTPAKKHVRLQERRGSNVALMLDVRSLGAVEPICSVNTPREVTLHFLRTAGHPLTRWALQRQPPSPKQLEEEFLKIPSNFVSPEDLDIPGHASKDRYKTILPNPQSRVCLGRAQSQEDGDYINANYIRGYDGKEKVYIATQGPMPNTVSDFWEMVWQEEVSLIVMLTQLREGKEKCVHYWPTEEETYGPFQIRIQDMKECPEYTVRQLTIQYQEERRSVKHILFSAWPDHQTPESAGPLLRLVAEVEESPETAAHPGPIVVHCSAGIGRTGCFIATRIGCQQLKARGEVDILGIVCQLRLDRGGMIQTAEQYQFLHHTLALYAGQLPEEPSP
The format is functional.

Test [5] has as its target T3, Tyrosine-protein phosphatase non-receptor type 7. The test can be described thus: HTS HePTP Fluorescent Assay using OMFP substrate for In Vitro dose response studies. [Related pubchem assays (depositor defined):AID1059, AID1077, AID1784, AID2068, AID2085, AID435032, AID521]. It is filed as functional.
Test [6] has as its target T1, Tyrosine-protein phosphatase non-receptor type 22. Put plainly: PTPN22 lymphoid phosphatase activity blockers – biochemical, fluorescence intensity, uHTS (AID 1779).
Test [7] deals with T2, Dual specificity protein phosphatase 3. The test can be described thus: VHR1 phosphatase inhibitors, biochemical (AID 1878).
The target in test [8] is T4, Dual specificity protein phosphatase 6 (Rattus norvegicus, UniProt Q64346).
T4 sequence (Q64346 whole entry): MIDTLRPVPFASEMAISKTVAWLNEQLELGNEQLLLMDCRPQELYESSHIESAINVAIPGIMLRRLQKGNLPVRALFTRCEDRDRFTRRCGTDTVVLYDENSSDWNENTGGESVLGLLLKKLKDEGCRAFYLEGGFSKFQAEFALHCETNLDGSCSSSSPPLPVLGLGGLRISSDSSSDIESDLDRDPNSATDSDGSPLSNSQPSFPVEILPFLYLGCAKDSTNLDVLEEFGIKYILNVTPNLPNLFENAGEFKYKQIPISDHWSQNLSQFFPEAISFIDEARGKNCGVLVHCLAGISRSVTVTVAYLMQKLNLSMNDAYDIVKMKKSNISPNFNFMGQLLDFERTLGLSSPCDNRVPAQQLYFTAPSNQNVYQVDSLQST
Put plainly: inhibition of rat DUSP6 enzyme activity – biochemical, in vitro, primary screen (AID 425).

For test [9], the target named is T1, Tyrosine-protein phosphatase non-receptor type 22. The test can be described thus: SAR LYP1 Fluorescent Assay using pCAP substrate for In Vitro dose response studies - Set 2. [Related pubchem assays (depositor defined):AID1779, AID1784, AID2135, AID449727]. It is filed as functional.
For test [10], the target named is Tyrosine-protein phosphatase non-receptor type 12 (Homo sapiens, UniProt Q05209). The test can be described thus: SAR Selectivity Analysis of small molecule inhibitors of PEST using pCAP in a fluorescence assay. [Related pubchem assays (depositor defined):AID1779, AID1784, AID2135]. It is filed as functional.
Test [11] has as its target T1, Tyrosine-protein phosphatase non-receptor type 22. Put plainly: SAR LYP1 Fluorescent Assay using OMFP substrate for In Vitro dose response studies - Set 3. [Related pubchem assays (depositor defined):AID1779, AID1784, AID2140, AID2686]. It is filed as functional.
For test [12], the target named is T3, Tyrosine-protein phosphatase non-receptor type 7. Put plainly: inhibition of hematopoietic tyrosine phosphatase HePTP – biochemical, set 2, SAR follow-up (AID 449736). It is filed as functional.
The target of test [13] is T1, Tyrosine-protein phosphatase non-receptor type 22. The test can be described thus: inhibition of lymphoid tyrosine phosphatase LYP – biochemical, pCAP fluorogenic substrate, fluorescence, set 3, SAR follow-up (AID 449727). It is filed as functional.
The target is the same in test [14]. It is filed as functional.
For test [15] the target is unchanged. The test can be described thus: PubChem AID 2135.
The target is the same in test [16]. Put plainly: PubChem AID 2140.
Test [17] has the same target. The test can be described thus: SAR LYP1 Fluorescent Assay using OMFP substrate for In Vitro dose response studies - Set 2. [Related pubchem assays (depositor defined):AID1779, AID1784, AID2140, AID449726, AID488869]. It is filed as functional.
Test [18] addresses T5, Low molecular weight phosphotyrosine protein phosphatase (Homo sapiens, UniProt P24666). It is filed as functional. Conditions: read-out: IC50_Mean.
Test [19] addresses T5, Low molecular weight phosphotyrosine protein phosphatase. The format is functional. Conditions: read-out: IC50_Mean. The source holds these as a separate data set.
The subject of the next test is CHO-K1. Put plainly: Counterscreen for antagonists of the orexin 1 receptor (OX1R; HCRTR1): Homogeneous time resolved fluorescence (HTRF)-based cell-based dose response assay to identify antagonists of the parental CHO-K1 cell line. [Related pubchem assays (depositor defined):AID434989, AID435008, AID463079, AID485270, AID492963, AID492964, AID492965, AID493232, AID504699, AID504701]. It is filed as functional. Conditions: Cricetulus griseus. For orientation: A counterscreen serves to expose hits that act by an unwanted route or on another target.

A short description of test [20]: Counterscreen for antagonists of the orexin 1 receptor (OX1R; HCRTR1): Fluorescence-based cell-based high throughput dose response assay to identify antagonists of the parental CHO cell line. [Related pubchem assays (depositor defined):AID434989, AID435008, AID463079, AID485270, AID492963, AID492964, AID492965, AID493232, AID504699, AID504701]. It is filed as functional.

Test [21] has as its target T6, Orexin/Hypocretin receptor type 1 (Homo sapiens, UniProt O43613). Put plainly: Homogeneous Time Resolved Fluorescence (HTRF)-based cell-based high throughput dose response assay for antagonists of the orexin 1 receptor (OX1R; HCRTR1). [Related pubchem assays (depositor defined):AID434989, AID435008, AID463079, AID485270, AID492963, AID492964, AID492965, AID493232, AID504717, AID504718]. It is filed as functional. Background: TR-FRET usually uses a lanthanide donor and a delayed reading to cut background.

Test [22] concerns the target T6, Orexin/Hypocretin receptor type 1. The test can be described thus: Fluorescence-based cell-based high throughput dose response assay for antagonists of the orexin 1 receptor (OX1R; HCRTR1). [Related pubchem assays (depositor defined):AID434989, AID435008, AID463079, AID485270, AID492963, AID492964, AID492965, AID493232, AID504717, AID504718]. It is filed as functional.

T6 sequence (O43613 whole entry): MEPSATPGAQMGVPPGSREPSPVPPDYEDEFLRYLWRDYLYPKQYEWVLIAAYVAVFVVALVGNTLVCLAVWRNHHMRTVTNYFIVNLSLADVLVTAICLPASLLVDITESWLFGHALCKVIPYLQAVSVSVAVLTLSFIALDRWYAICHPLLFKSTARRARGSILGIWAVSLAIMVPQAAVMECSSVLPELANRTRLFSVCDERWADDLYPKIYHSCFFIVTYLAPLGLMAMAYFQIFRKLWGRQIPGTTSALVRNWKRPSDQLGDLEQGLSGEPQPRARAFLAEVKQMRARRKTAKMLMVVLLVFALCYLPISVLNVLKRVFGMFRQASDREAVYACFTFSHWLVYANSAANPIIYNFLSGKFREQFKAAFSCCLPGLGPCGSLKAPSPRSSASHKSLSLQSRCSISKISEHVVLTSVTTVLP
T5 sequence (P24666 whole entry): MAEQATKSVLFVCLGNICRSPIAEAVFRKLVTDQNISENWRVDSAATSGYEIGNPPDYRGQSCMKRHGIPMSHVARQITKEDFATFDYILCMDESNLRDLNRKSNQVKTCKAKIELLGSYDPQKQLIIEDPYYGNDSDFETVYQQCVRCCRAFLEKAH
T2 sequence (P51452 whole entry): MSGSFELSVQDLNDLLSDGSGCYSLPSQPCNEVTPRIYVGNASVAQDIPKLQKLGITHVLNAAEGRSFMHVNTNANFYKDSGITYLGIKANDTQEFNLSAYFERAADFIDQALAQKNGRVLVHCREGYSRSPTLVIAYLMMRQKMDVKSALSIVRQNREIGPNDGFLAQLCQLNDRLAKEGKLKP
Lysine-specific demethylase 4A, sequence (O75164 whole entry): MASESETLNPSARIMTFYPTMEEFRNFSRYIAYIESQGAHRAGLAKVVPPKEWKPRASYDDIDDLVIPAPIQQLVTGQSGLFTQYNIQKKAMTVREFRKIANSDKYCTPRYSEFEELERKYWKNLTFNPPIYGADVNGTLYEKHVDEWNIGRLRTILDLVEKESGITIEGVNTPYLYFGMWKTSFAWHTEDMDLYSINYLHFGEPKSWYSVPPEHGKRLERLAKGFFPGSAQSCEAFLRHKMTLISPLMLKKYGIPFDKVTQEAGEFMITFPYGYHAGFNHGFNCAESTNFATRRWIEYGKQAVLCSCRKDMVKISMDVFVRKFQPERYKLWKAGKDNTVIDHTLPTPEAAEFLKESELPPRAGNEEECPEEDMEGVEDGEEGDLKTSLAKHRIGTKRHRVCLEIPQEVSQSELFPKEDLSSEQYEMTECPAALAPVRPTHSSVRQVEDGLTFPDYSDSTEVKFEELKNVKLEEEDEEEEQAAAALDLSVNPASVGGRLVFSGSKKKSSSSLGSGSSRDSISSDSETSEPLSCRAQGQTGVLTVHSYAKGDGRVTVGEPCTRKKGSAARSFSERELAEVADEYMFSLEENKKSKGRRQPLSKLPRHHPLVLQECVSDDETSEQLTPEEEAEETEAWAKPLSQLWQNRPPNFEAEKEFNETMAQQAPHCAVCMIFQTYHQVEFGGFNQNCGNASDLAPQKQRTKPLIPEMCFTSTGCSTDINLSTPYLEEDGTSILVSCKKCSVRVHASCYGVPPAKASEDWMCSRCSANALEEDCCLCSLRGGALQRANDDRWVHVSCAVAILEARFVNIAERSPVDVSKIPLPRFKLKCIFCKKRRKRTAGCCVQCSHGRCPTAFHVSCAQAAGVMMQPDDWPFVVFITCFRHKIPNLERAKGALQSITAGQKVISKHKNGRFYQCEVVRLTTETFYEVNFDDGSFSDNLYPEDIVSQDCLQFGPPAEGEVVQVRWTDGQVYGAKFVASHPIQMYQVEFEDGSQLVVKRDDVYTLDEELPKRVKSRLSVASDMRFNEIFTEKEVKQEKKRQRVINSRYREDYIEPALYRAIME
Tyrosine-protein phosphatase non-receptor type 12, sequence (Q05209 whole entry): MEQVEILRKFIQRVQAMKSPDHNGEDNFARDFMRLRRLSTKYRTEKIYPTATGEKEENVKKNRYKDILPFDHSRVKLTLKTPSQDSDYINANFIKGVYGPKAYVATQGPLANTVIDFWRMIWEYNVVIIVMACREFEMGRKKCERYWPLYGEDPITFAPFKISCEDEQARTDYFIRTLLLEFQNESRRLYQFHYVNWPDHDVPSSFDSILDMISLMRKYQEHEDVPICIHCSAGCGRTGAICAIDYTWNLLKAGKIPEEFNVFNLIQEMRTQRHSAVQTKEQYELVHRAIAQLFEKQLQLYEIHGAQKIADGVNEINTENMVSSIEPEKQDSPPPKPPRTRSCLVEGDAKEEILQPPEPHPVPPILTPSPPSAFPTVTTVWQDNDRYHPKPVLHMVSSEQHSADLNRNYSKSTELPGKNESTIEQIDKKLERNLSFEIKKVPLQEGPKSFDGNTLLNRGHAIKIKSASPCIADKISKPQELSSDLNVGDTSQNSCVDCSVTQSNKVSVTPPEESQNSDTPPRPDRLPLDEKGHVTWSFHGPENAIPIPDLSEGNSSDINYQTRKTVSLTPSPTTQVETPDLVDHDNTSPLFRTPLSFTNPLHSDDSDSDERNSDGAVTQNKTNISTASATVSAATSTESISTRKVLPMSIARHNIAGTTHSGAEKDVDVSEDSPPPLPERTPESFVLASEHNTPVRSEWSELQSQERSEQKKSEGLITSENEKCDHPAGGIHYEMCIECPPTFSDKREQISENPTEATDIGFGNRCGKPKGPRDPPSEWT

As for `O=c1nc(SCc2cccc(C(F)(F)F)c2)nc2ccccn12`, the AC50 in test [1] is > 60 µM (inactive).
Regarding `Cc1ccc(/C=C/c2nc(O)c3c(C)c(C(=O)O)sc3n2)cc1[N+](=O)[O-]`, the IC50 in [2] is 16.8 µM (active); in test [3] it was 11.1 µM (active); in test [4], 12.2 µM (active); in [5] it was > 99 µM (inactive); in test [6] it was 12.9 µM (active); in test [7], 1.62 µM (active). Besides, the IC50 was 8.48 µM (active) in [8]; 3.17 µM (active) in test [9]; 3.43 µM (active) in test [10]; 10.7 µM (active) in [11]; 2.92 µM (active) in [12]; 6.19 µM (active) in test [13]. In addition, the IC50 in [14] is 11.2 µM (active); in test [15] it was 6.6 µM (active); in test [16], 50.9 µM (active); in test [17] it was 4.56 µM (active); in test [18] it was > 80 µM (inactive); in [19], 32.7 µM (inactive).
On to `Cn1cc(/C=C(\C#N)C(=O)Nc2ccccc2O)c2ccccc21`, for which the IC50 with CHO-K1 is > 66.2 µM (inactive); in [20], 25 µM (inactive); in test [21], 4.48 µM (active); in [22], 5.57 µM (active).
